Source: PubChem BioAssay (NCI)
“And” between values parts separate entries of the source, which are not always exact repeats. Equal entries are not always repeated.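 Exposure lasted 48 hours, with cells grown in 96-well plates and compounds tested at five concentrations. GI50 is the concentration that inhibits growth by half. TGI denotes the concentration required for complete inhibition of growth.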

Columns and labels:
Experiment in all cases: NCI-60 cell line screen, 48 h
NCI-H522 lung = system: NCI-H522 lung
HT29 colon = system: HT29 colon
COLO 205 colon = system: COLO 205 colon
786-0 renal = system: 786-0 renal
SF-539 CNS = system: SF-539 CNS
OVCAR-3 ovarian = system: OVCAR-3 ovarian
HS 578T breast = system: HS 578T breast
HCC-2998 colon = system: HCC-2998 colon
UACC-257 melanoma = system: UACC-257 melanoma
K-562 leukemia = system: K-562 leukemia

| Structure (SMILES) | GI50 (NCI-H522 lung) | TGI (NCI-H522 lung) | GI50 (HT29 colon) | TGI (HT29 colon) | GI50 (COLO 205 colon) | TGI (COLO 205 colon) | GI50 (786-0 renal) | TGI (786-0 renal) | GI50 (SF-539 CNS) | TGI (SF-539 CNS) | GI50 (OVCAR-3 ovarian) | TGI (OVCAR-3 ovarian) | GI50 (HS 578T breast) [nM] | TGI (HS 578T breast) [nM] | GI50 (HCC-2998 colon) | TGI (HCC-2998 colon) | GI50 (UACC-257 melanoma) | TGI (UACC-257 melanoma) | GI50 (K-562 leukemia) | TGI (K-562 leukemia) |
| --- | --- | --- | --- | --- | --- | --- | --- | --- | --- | --- | --- | --- | --- | --- | --- | --- | --- | --- | --- | --- |
| COc1ccc(S(=O)(=O)N2CCNCC2)cc1OC | > 100000 nM | > 100000 nM | > 100000 nM | > 100000 nM | > 100000 nM | > 100000 nM | > 100000 nM | > 100000 nM | > 100000 nM | > 100000 nM | > 100000 nM | > 100000 nM | > 100000 | > 100000 | > 100000 nM | > 100000 nM | > 100000 nM | > 100000 nM | > 100000 nM | > 100000 nM |
| Cc1cc(O)c2c3c(ccc2c1)C(=O)c1c(O)cccc1C3=O | – | > 32300 nM | – | > 44900 nM | – | 12400 nM | – | > 100000 nM | – | 50500 nM | – | 3450 nM | – | > 100000 | – | > 100000 nM | – | > 100000 nM | – | > 100000 nM |
| COc1cc(C(=O)/C=C/c2c(C(F)(F)F)nc3ccccn23)cc(OC)c1OC | 1770 nM | 3910 nM | 1930 nM | 4450 nM | 2110 nM | 4360 nM | 1720 nM | 3420 nM | 1630 nM | 3220 nM | 1830 nM | 3610 nM | 3270 | 54600 | 1830 nM | 3380 nM | 2050 nM | 5080 nM | 2830 nM | > 100000 nM |
| COc1c(OC(C)C)cc2cc(O)c(C(=O)NC3Cc4ccc(c(Cl)n4)O[C@@H]4C=C5C#C/C(=C\C#CC6OC56C4OC4CC(C)(O)C(O)C(C)O4)C(OC4CC(O)C(N(C)C)C(C)O4)COC3=O)cc2c1OC (stereo partly specified) | 29.6 µM and 1.25 µg/mL | > 36.3 µM and 15.8 µg/mL | > 36.3 µM and 0.714 µg/mL | > 36.3 µM and 37.5 µg/mL | > 36.3 µM and 0.345 µg/mL | > 36.3 µM and 13.6 µg/mL | 7.1 µM and 0.244 µg/mL | > 36.3 µM and 2.79 µg/mL | 14.4 µM and 0.372 µg/mL | > 36.3 µM and 5.29 µg/mL | > 36.3 µM and 21.3 µg/mL | > 36.3 µM and 37.5 µg/mL | – | > 36300 | 21 µg/mL | > 36.3 µM and 37.5 µg/mL | 21.9 µM and 1.08 µg/mL | > 36.3 µM and 37.5 µg/mL | > 36.3 µM and 0.823 µg/mL | > 36.3 µM and 37.5 µg/mL |
| COc1cc(-c2ncn(/C=C\c3nnco3)n2)cc(C(F)(F)F)c1 | 67.1 nM | 1610 nM | 191 nM | 50800 nM | 67.5 nM | > 24700 nM | 465 nM | > 51900 nM | 29.5 nM | 581 nM | 120 nM | 2690 nM | 488 | > 100000 | 215 nM | 4500 nM | 368 nM | > 52500 nM | 122 nM | > 100000 nM |
| CC(C)N(Cc1ccc(F)cc1)c1ccc(CO)c(Cl)c1 | 11300 nM | 26700 nM | 1810 nM | 14100 nM | 1030 nM | 7170 nM | 7000 nM | 22100 nM | 13400 nM | 26500 nM | 184 nM | 623 nM | 14800 | 37800 | 2810 nM | 20000 nM | 83.7 nM | 316 nM | 468 nM | 12900 nM |
| O=C(c1ccco1)c1c(C(F)(F)F)n([O-])c2cc(F)c(F)cc2[n+]1=O | 1880 nM | 5470 nM | 609 nM | > 100000 nM | 229 nM | 3060 nM | 51.2 nM | 137 nM | 329 nM | 679 nM | 193 nM | 1350 nM | 655 | 2630 | – | 14.5 nM | 1290 nM | 3010 nM | 79 nM | 8340 nM |
| COc1ccc(-c2[nH]c3ccccc3c2/C=C(\C#N)S(=O)(=O)c2ccccc2)cc1 | 1780 nM | – | 309 nM | – | 253 nM | 670 nM | 844 nM | > 38300 nM | 299 nM | 1130 nM | 241 nM | 673 nM | 671 | > 46000 | 1110 nM | 5990 nM | 10700 nM | > 100000 nM | 535 nM | > 100000 nM |
